According to ChEMBL document CHEMBL1122460, “Preparation of some 10-[3-(dimethylamino)-1-propyl]-10H-pyrazino[2,3-b][1,4] benzothiazines as potential neuroleptics” (J Med Chem, 1983):

Columns and labels:
Type in all cases: protein assay
[1] = target: Dopamine receptor; experiment: Tested for displacement of rat striatal dopamine receptors by using [3H]apomorphine as radioligand
[2] = target: Dopamine receptor; experiment: Tested for displacement of rat caudate dopamine receptors by using [3H]spiperone as radioligand
[3] = target: Dopamine receptor; experiment: Tested for displacement of rat caudate dopamine receptors by using [3H]apomorphine as radioligand

| Structure (SMILES) | IC50 [1] [µM] | IC50 [2] [nM] | IC50 [3] [nM] |
| --- | --- | --- | --- |
| CN(C)CCCN1c2cc(Cl)ccc2Sc2nccnc21 | 5.968 | 9166 |  |
| CN(C)CCCN1c2ccccc2Sc2nc(Cl)cnc21 |  | 553 | 1222 |
| CN(C)CCCN1c2ccccc2Sc2ncc(Cl)nc21 |  | 62.1 | 67.3 |
| Cc1cnc2c(n1)N(CCCN(C)C)c1ccccc1S2 | 0.103 | 382 |  |
